{
  "source": "patent US20220008500A1",
  "about": "“COMPOSITIONS AND METHODS FOR TREATING HEART FAILURE” (The George Washington University, priority 2017, published 2022)",
  "key": {"[1]": {"target": "T1, DREADDs in PVN OXT neurons (Homo sapiens, UniProt P20309, A239G/Y149C)", "T1 sequence (P20309 whole entry Y149C/A239G)": "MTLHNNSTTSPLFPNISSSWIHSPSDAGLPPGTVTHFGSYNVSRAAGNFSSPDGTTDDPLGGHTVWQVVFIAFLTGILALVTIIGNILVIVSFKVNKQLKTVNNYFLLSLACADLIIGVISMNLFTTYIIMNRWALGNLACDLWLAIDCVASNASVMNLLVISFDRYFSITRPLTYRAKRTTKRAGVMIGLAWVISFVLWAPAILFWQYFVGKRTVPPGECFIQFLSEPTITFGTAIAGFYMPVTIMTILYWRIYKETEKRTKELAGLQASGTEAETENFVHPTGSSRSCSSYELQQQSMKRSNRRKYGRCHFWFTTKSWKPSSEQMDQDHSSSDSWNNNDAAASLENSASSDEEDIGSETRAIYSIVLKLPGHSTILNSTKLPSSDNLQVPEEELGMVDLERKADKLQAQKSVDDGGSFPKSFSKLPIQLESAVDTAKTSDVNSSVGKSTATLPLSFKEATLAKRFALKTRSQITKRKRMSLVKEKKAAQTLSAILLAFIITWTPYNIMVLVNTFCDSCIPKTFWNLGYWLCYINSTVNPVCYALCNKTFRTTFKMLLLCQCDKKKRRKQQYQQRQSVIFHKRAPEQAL", "procedure": "(§1) In this system one viral vector expresses Cre recombinase under an OXT promotor. The second vector expresses the excitatory hM3Dq DREADDs22. This is a Cre-dependent vector that has silencing double-floxed inverse open reading frames, which insures expression is only in OXT neurons that selectively express Cre. In each animal, 30-50 nl containing both viral vectors was selectively microinjected into the PVN over a 20 minutes period at 1 week of age.\nSprague-Dawley rats at 4 weeks of age that had DREADDS expression in PVN oxytocin neurons were anesthetized (isoflurane) and implanted with a telemetry device (HDX-11, DSI) with the pressure catheter inserted into the descending abdominal aorta to measure blood pressure (BP). The ECG leads of the device were inserted subcutaneously to measure HR. Rats were allowed to recover from this surgery for a week, followed by IP saline injections for 3 days to acclimate the animals to IP injections. […] One injection of one of the three solutions was administered each day on consecutive days."}, "[2]": {"target": "T1, DREADDs in PVN OXT neurons", "assay": "Ex vivo cardiac function of excised Langendorff perfused hearts during sinus rhythm", "parameters": "expressed in transfected cells; host or cells: PVN oxytocin neurons of Sprague-Dawley rats, transduced in vivo with a Cre-dependent (double-floxed inverse ORF) viral vector plus an OXT-promoter Cre vector; species or system Sprague-Dawley rats", "excerpt": "Pressure overload induced LV hypertrophy was initiated in male Sprague-Dawley rats using a minimally invasive trans-ascending aortic constriction (TAC) procedure. Rats at one week of age were aestheticized by hypothermia and underwent TAC surgery. A 0.5 cm incision was made at the level of the chest, the chest was opened and the thymus was retracted to reveal the aorta. A 4-0 silk suture was passed around the ascending aorta, and with a 25-gauge needle temporarily placed adjacent to the aorta, the suture was tied around both the aorta and needle (TAC and TAC+OXT groups). The needle was then removed, leaving the constricting suture around the aorta. Buprenorphine was applied as an analgesic. Successful constriction was confirmed upon examination of the aorta after each animal was sacrificed.\nas §1, with “Additionally, selective activation of DREADDs in PVN OXT neurons decreases both mean arterial pressure and HR in telemetry instrumented conscious unrestrained animals. […] In this” for “In this”\n(§2) TAC+OXT and OXT NORM animals received intraperitoneal (IP) injections of CNO (1 mg/kg) daily, beginning at 5 weeks of age until the animal was sacrificed.\nAt nine weeks of age rats were anesthetized with an IP injection of 0.2 mL Telazol and subject to isoflurane inhalation. Following cessation of pain reflexes, hearts were rapidly excised (n=26) and Langendorff perfused via the aorta at constant pressure (65 mmHg) and temperature (37° C.) with a Krebs-Henseleit solution containing (in mM) 115 NaCl, 3.3 KCl, 2.0 CaCl2, 1.4 MgSO4, 25.0 NaHCO3, 1.0 KH2PO4, 5.0 glucose, and 1.0 lactate. Perfusate was oxygenated with 95% 02-5% CO2. After a stabilization period of 10 minutes, a size 5 balloon (Harvard Apparatus) was inserted into the LV to measure isovolumic LV developed pressure (LVDP). Diastolic pressure was set to 10 mmHg and LVDP was computed as the difference between systolic and diastolic pressures. HR, LVDP, and coronary flow rate (CFR) were measured for at least 15 minutes during sinus rhythm. An isoproterenol (16504, Sigma Aldrich) dose response protocol was then administered using concentrations of 0.01, 0.1, 1, 10, 100, 1000 nM, and HR, LVDP, and CFR were measured at each concentration once function stabilized. After each study, rate pressure product (RPP), an indirect measure of LV work, was calculated as the product of HR and LVDP. Contractility and relaxation were measured as the maximum and minimum values of the first derivative of the LVP waveform, respectively, to assess inotropy and lusitropy."}, "collagen III": {"test_system": "collagen III", "assay": "Western blot of LV myocardium, collagen III", "assay_type": "in vivo, Sprague-Dawley rats", "settings": "CNO 1 mg/kg IP daily", "procedure": "as §2\nSamples of LV myocardium (n=5-6/group) were flash frozen in liquid nitrogen and stored at −80° C. For western blot analysis of protein expression, samples were thawed and homogenized using the Qproteome Mammalian Protein Prep Kit (Qiagen) in tubes containing metallic beads. Samples were then centrifuged at 14,000 g for 20 minutes and protein concentrations were determined by the Pierce BCA Protein Assay (Thermo Scientific). Laemmli buffer (Bio Rad) with 10% 2-mercaptoethanol (Sigma-Aldrich) was added to the samples and samples were heated to 98° C. Equal protein concentration was loaded into wells containing 4-20% Mini-PROTEAN® TGX™ Gels (Bio Rad). The samples were then run at 100V for 1-1.5 hours to separate proteins by electrophoresis.\nAfter electrophoresis, the samples were transferred to PVDF membranes for 10 min at 25V using the Trans-Blot® Turbo™ Transfer System (Bio Rad). The membranes were blocked with 5% milk for 18 hours. […] Band intensities for collagen III and IL-10 were measured using ImageJ and normalized to the corresponding band intensity for GAPDH."}, "PVN OXT neurons": {"test_system": "PVN OXT neurons", "assay": "Firing of PVN OXT neurons after CNO injection", "assay_type": "in vivo", "settings": "DREADDs expressed in PVN OXT neurons", "excerpt": "as §1, with “Additionally, selective activation of DREADDs in PVN OXT neurons decreases both mean arterial pressure and HR in telemetry instrumented conscious unrestrained animals. […] In this” for “In this”"}, "[3]": {"settings": "acute activation of PVN OXT neurons by CNO, n=4"}, "[4]": {"settings": "awake rats with DREADDs in PVN OXT neurons, CNO 1 mg/kg IP, acute"}, "[5]": {"settings": "hearts of TAC rats given CNO 1 mg/kg IP daily"}, "[6]": {"settings": "hearts of rats without TAC (OXT NORM) given CNO daily"}},
  "note": "“And” between values parts separate entries of the source, which are not always exact repeats. Equal entries are not always repeated.",
  "data": [
    {"smiles": "C[N+]1([O-])CCN(C2=Nc3cc(Cl)ccc3Nc3ccccc32)CC1", "note": "[CNO, clozapine N-oxide]", "values": [
      {"measurement": "Effect on BP (figure legend)", "setting": "[1]; [3]", "value": "significantly reduced BP"},
      {"measurement": "Effect on HR (figure legend)", "setting": "[1]; [3]", "value": "significantly reduced HR"},
      {"measurement": "Average reduction of HR", "setting": "[1]; [4]", "value": 56, "unit": "bpm"},
      {"measurement": "Average reduction of blood pressure", "setting": "[1]; [4]", "value": 13, "unit": "mmHg"},
      {"measurement": "Blood pressure after CNO", "setting": "[1]; awake rats with DREADDs, CNO 1 mg/kg IP, before: 105.8±1.9 mmHg", "value": "93.4±1.5", "unit": "mmHg"},
      {"measurement": "HR after CNO", "setting": "[1]; awake rats with DREADDs, CNO 1 mg/kg IP, before: 475.4±15.9 bpm", "value": "419±12.4", "unit": "bpm"},
      {"measurement": "LV contractility (maximum of first derivative of LVP)", "setting": "[2]; [5]", "value": "3,124±383 mmHg/s"},
      {"measurement": "LV developed pressure (LVDP)", "setting": "[2]; [5]", "value": "126±14", "unit": "mmHg"},
      {"measurement": "LV relaxation (minimum of first derivative of LVP)", "setting": "[2]; [5]", "value": "−2,203±231 mmHg/s"},
      {"measurement": "Rate pressure product (RPP)", "setting": "[2]; [5]", "value": "26,874±4,036 mmHg*bpm"},
      {"measurement": "Coronary flow rate (CFR)", "setting": "[2]; hearts of TAC rats given CNO 1 mg/kg IP daily, baseline (no isoproterenol), listed as TAC+OXT", "value": "13.8 ± 2.9 mL/min and 14 ± 2.9 mL/min"},
      {"measurement": "Coronary flow rate (CFR)", "setting": "[2]; [6]", "value": "16 ± 1.9", "unit": "mL/min"},
      {"measurement": "LV contractility (maximum of first derivative of LVP)", "setting": "[2]; [6]", "value": "4,631±931 mmHg/s"},
      {"measurement": "LV developed pressure (LVDP)", "setting": "[2]; [6]", "value": "127±16", "unit": "mmHg"},
      {"measurement": "LV relaxation (minimum of first derivative of LVP)", "setting": "[2]; [6]", "value": "−2,926±397 mmHg/s"},
      {"measurement": "Rate pressure product (RPP)", "setting": "[2]; [6]", "value": "26,978±2,274 mmHg*bpm"},
      {"measurement": "Collagen III expression (band intensity normalized to GAPDH)", "setting": "collagen III; TAC rats with DREADDs", "value": "1.95±0.7", "unit": "times Control"},
      {"measurement": "Collagen III expression (band intensity normalized to GAPDH)", "setting": "collagen III; rats without TAC (OXT NORM)", "value": "1.31±0.5", "unit": "change from Control"},
      {"measurement": "Firing of PVN OXT neurons", "setting": "PVN OXT neurons", "value": "increases the firing of PVN OXT neurons for at least one hour"}
    ]}
  ]
}
